Measurements reported in patent publication US8865967B2 (priority 2010, dated 2014).

How the values were obtained:
Type in all cases: cell-based
[1] = system: Fusarium graminearum (FGR; isolate 73B ISU); settings: for IC50 (ppm) High Salt Fgr: high salt: 1/2x liquid media plus 1 mM calcium chloride, 50 mM potassium chloride; for IC50 (ppm) Low Salt Fgr: low salt: 1/8x potato dextrose broth plus 0.25 mM calcium chloride, 12.5 mM potassium chloride
Diplodia maydis (DMA) = settings: for IC50 (ppm) High Salt Dma: high salt: 1/2x liquid media plus 1 mM calcium chloride, 50 mM potassium chloride; for IC50 (ppm) Low Salt Dma: low salt: 1/8x potato dextrose broth plus 0.25 mM calcium chloride, 12.5 mM potassium chloride
[2] = system: Colletotrichum graminicola (CGR; isolate Carroll-IA-99); settings: for IC50 (ppm) High Salt Cgr: high salt: 1/2x liquid media plus 1 mM calcium chloride, 50 mM potassium chloride, Table 1; for IC50 (ppm) Low Salt Cgr: low salt: 1/8x Czapek-Dox broth plus 0.25 mM calcium chloride, 12.5 mM potassium chloride; for Antifungal activity (IC50 in ppm) against C. graminicola under high salt conditions: Table 2
[3] = system: Fusarium verticillioides (FVE)

| Substance | IC50 (ppm) High Salt Fgr [1] | IC50 (ppm) Low Salt Fgr [1] | IC50 (ppm) High Salt Dma (Diplodia maydis (DMA)) | IC50 (ppm) Low Salt Dma (Diplodia maydis (DMA)) | IC50 (ppm) High Salt Cgr [2] | IC50 (ppm) Low Salt Cgr [2] | IC50 (ppm) High Salt Fve [3] | IC50 (ppm) Low Salt Fve [3] | Antifungal activity (IC50 in ppm) against C. graminicola under high salt conditions [2] |
| --- | --- | --- | --- | --- | --- | --- | --- | --- | --- |
| Pp-PDF1-3CA-2D3: Pp-PDF1 variant from third shuffling round (RVCTKPSKFFRGLCVSDNDCTNACRKEGLPTGFCQSKGFFNSVCVCKKPC; Synthetic sequence obtained from DNA shuffling of a plant sequence.) | ^~100 ppm | 15 ppm | 25 ppm | 6 ppm | 0.8 ppm | 0.3 ppm | 200 ppm | 30 ppm | – |
| Pp-PDF1-3CA-1 E6: Pp-PDF1 variant from third shuffling round (RVCTKPSKFYRGLCVSDRDCTNACRKEGLPTGFCQSKGFFNSVCVCKKPC; Synthetic sequence obtained from DNA shuffling of a plant sequence.) | ^~100 ppm | – | – | – | 0.6 ppm | – | – | – | – |
| Pp-PDF1 (4B11): Pp-PDF1 variant identified by DNA shuffling (RVCTKPSKFFKGMCVSDNNCTHACRKEGLPTGFCQSKGFFNSVCVCKKPC; Synthetic sequence obtained from DNA shuffling of a plant sequence.) | >200 ppm | – | 12.5 ppm | – | 0.8 ppm | – | >200 ppm | – | 1 ppm |
| Pp-PDF1-2CA-1H4: Pp-PDF1 variant from second shuffling round (RVCRKPSKFFKGLCLSDRDCTNACRKEGLATGECQSKGFFNSVCVCEKPC; Synthetic sequence obtained from DNA shuffling of a plant sequence.) | – | – | – | – | 1 ppm | – | – | – | – |
| Pp-PDF1 (C2B5): Pp-PDF1 variant identified by DNA shuffling (RVCEKPSKFFKGMCVSDRNCTNACRKEGLPTGFCQSKGFFNSVCVCKKPC; Synthetic sequence obtained from DNA shuffling of a plant sequence.) | – | – | – | – | – | – | – | – | 0.8 ppm |
| PP-PDF1-1F-7H6: Pp-PDF1 variant from first shuffling round (RVCEKPSKFFKGMCVRDRDCTVACKKEGLATGFCQKKGFFNFVCVCKKPC; Synthetic sequence obtained from DNA shuffling of a plant sequence.) | 3 ppm | – | 200 ppm | – | 10 ppm | – | >200 ppm | – | – |
| Pp-PDF1-3CA-1A2: Pp-PDF1 variant from third shuffling round (RVCTKPSKFYRGLCVSDRDCTHACRKEGLPTGFCQSKGFFNSVCVCKKPC; Synthetic sequence obtained from DNA shuffling of a plant sequence.) | ^~100 ppm | 15 ppm | 50 ppm | 15 ppm | 0.6 ppm | 3 ppm | 200 ppm | 30 ppm | – |
| Pp-PDF1 2CA 5H4: Pp-PDF1 variant from second shuffling round (RVCKKPSKFFKGLCLSDRDCTNACRKEGLATGECQSKGFFNSVCVCEKPC; Synthetic sequence obtained from DNA shuffling of a plant sequence.) | – | – | – | – | 1 ppm | – | – | – | – |
| Pp-PDF1-3CA-1B2: Pp-PDF1 variant from third shuffling round (RVCTKPSKFYRGLCVSDRDCTHACRKEGLPIGECKSKGFFNSVCVCKKPC; Synthetic sequence obtained from DNA shuffling of a plant sequence.) | ^~100 ppm | 15 ppm | 50 ppm | 15 ppm | 0.8 ppm | 2 ppm | 200 ppm | 30 ppm | – |
| Pp-PDF1: Picramnia pentandra plant defensin, parent polypeptide used in the DNA shuffling (KVCTKPSKFFKGLCGADRDCTVACKKEGLATGFCQKKGFFNFVCVCRKPC; listed as Picramnia pentandra) [reference compound] | 5 ppm | 2 ppm | 50 ppm | 7.5 ppm | 15 ppm | 3 ppm | 50 ppm | 2 ppm | 15 ppm |
| PP-PDF1-2CF-2D8: Pp-PDF1 variant from second shuffling round (RVCTKPSKFYKGLCVSDRDCTNACRKEGLPTGFCQSKGFFNSVCVCKKPC; Synthetic sequence obtained from DNA shuffling of a plant sequence.) | 100 ppm | 15 ppm | 50 ppm | 15 ppm | 0.6 ppm | 0.3 ppm | 200 ppm | 30 ppm | – |
| Pp-PDF1-2CA-1A6: Pp-PDF1 variant from second shuffling round (RVCKKPSKFFKGLCLSDRDCTNACRKEGLATGECQSKGFFNSVCVCRKPC; Synthetic sequence obtained from DNA shuffling of a plant sequence.) | – | – | – | – | 1 ppm | – | – | – | – |
| Pp-PDF1-3CA-1A7: Pp-PDF1 variant from third shuffling round (RVCTKPSKFFRGLCVSDRDCTNACRKEGLPIGFCQSKGFFNSVCVCKKPC; Synthetic sequence obtained from DNA shuffling of a plant sequence.) | ^~100 ppm | 15 ppm | 25 ppm | 10 ppm | 0.6 ppm | 0.8 ppm | 200 ppm | 30 ppm | – |
| Pp-PDF1-1C-6D3: Pp-PDF1 variant from first shuffling round (RVCEKPSKFFKGLCVRDRDCAVACKKEGLASGFCQSKGFFNSVCVCKKPC; Synthetic sequence obtained from DNA shuffling of a plant sequence.) | – | 4.5 ppm | – | – | 12 ppm | 0.6 ppm | – | – | – |
| Pp-PDF1-2CE-4A7: Pp-PDF1 variant from second shuffling round (RVCTKPSKFFKGLCVSDNNCTHACRTEGLPIGFCQSKGFFNSVCVCKKPC; Synthetic sequence obtained from DNA shuffling of a plant sequence.) | 5.6 ppm | – | 25 ppm | – | 0.8 ppm | – | 200 ppm | – | – |
| Pp-PDF1-4CB-6E9: Pp-PDF1 variant from fourth shuffling round (RVCTKPSKFFKGLCISDRQCTNACRKEGLPTGECQPKGFFNSVCVCRKPC; Synthetic sequence obtained from DNA shuffling of a plant sequence.) | 150 ppm | – | 100 ppm | – | 0.25 ppm | 0.4 ppm | >200 ppm | – | – |
| Pp-PDF1-4CB-12G9: Pp-PDF1 variant from fourth shuffling round (RVCTKPSKFFRGLCVSDRQCTNACRKEGLPIGECQSKGFFNSVCVCRKPC; Synthetic sequence obtained from DNA shuffling of a plant sequence.) | 50 ppm | – | 25 ppm | – | 0.25 ppm | 0.25 ppm | >200 ppm | – | – |
| Pp-PDF1-1F-1C5: Pp-PDF1 variant from first shuffling round (KVCTKPSKFFKGMCVRDRDCTNACRKEGLASGFCQKKGFFNFVCVCRKPC; Synthetic sequence obtained from DNA shuffling of a plant sequence.) | 1.5 ppm | – | 50 ppm | – | 10 ppm | – | >200 ppm | – | – |
| PP-PDF1-1F-12H3: Pp-PDF1 variant from first shuffling round (RVCTKPSKFFKGLCVSDDDCAHACRKEGLATGKCQKKGFFNRVCVCKKPC; Synthetic sequence obtained from DNA shuffling of a plant sequence.) | 3 ppm | – | 200 ppm | – | 10 ppm | – | >200 ppm | – | – |
| PP-PDF1-2CF-10F3: Pp-PDF1 variant from second shuffling round (RVCTKPSKFFRGLCVSDRNCTNACRKEGLPTGECKSKGFFNSVCVCKKPC; Synthetic sequence obtained from DNA shuffling of a plant sequence.) | 100 ppm | 15 ppm | 25 ppm | 15 ppm | 0.6 ppm | 1.5 ppm | 200 ppm | 30 ppm | – |
| Pp-PDF1-4CB-6E6: Pp-PDF1 variant from fourth shuffling round (RVCTKPSKFYKGLCISDRDCTNACRKEGLPIGFCKSKGFFNSVCVCRKPC; Synthetic sequence obtained from DNA shuffling of a plant sequence.) | 150 ppm | – | 100 ppm | – | 0.25 ppm | 0.25 ppm | >200 ppm | – | – |
